# According to patent US8324132B2, “Mixture and method for controlling undesired vegetation” (E. I. du Pont de Nemours and Company, priority 2010, dated 2012):
# Columns and labels:
# Type in all cases: in vivo
# [1] = system: bermudagrass (Cynodon dactylon, CYNDA); assay: Test C field plots: bermudagrass phytotoxic response
# Source text: (§1) In the following Tests C through E, Colby's equation was used to calculate the expected additive herbicidal effect of nicosulfuron and glyphosate alone and in combination. Colby's equation (S. R. Colby, “Calculating Synergistic and Antagonistic Responses of Herbicide Combinations,” Weeds, 15(1), pp 20-22 (1967)) calculates the expected additive effect of herbicidal mixtures, and for two active ingredients is of the form: Pa+b=Pa+Pb−(PaPb/100) • wherein Pa±b is the percentage effect of the mixture expected from additive contribution of the individual components, • Pa is the observed percentage effect of the first active ingredient at the same use rate as in the mixture, and • Pb is the observed percentage effect of the second active ingredient at the same use rate as in the mixture.
# (§2) For mixtures comprising nicosulfuron, metsulfuron-methyl and glyphosate the expected herbicidal effect was calculated based on the combination of nicosulfuron and metsulfuron-methyl providing observed herbicidal effect Pa and glyphosate providing observed herbicidal effect Pb in the Colby Equation. Plant responses to components Pa and Pb range from zero to 100% where zero is no observed response and 100% is complete response (i.e. plant death). Mixtures of herbicides were tested for their ability to express synergism (enhanced weed control) or antagonism (improved tolerance) at several locations in the United States. In the following Tests glyphosate was provided by the potassium salt of glyphosate. Crop phytotoxic response (% phyto) and weed control efficacy (% control) were visually evaluated using a 0-100 scale where zero is no visible response and 100 is plant death. In the following Tables “DAA” means days after application and “g a.i./ha” means grams active ingredient per hectare.
# (§3) Herbicides and herbicide mixtures were applied to field plots of bermudagrass (Cynodon dactylon, CYNDA) near De Leon, Tex., Yukon, Okla. and Burlington, Okla. to control field sandbur (Cenchrus incertus M. A. Curtis, CCHIN) approximately one week after the bermudagrass had been cut and harvested. All herbicides and herbicide mixtures were formulated in water containing 0.25% (vol/vol) non-ionic surfactant (“NIS” provided by INDUCE®) and applied as a spray mixture to bermudagrass stubble using a backpack sprayer pressurized with CO2.
# [2] = system: knotroot foxtail (Setaria geniculata [Lam.] Beauv., SETGE); assay: Test D field plots: knotroot foxtail control
# Source text: as §1, §2
# (§4) Herbicides and herbicide mixtures were applied to field plots of bermudagrass (Cynodon dactylon, CYNDA) near Lena, Miss. and Paris, Ark. to control knotroot foxtail (Setaria geniculata [Lam.] Beauv., SETGE) approximately one week after the bermudagrass had been cut and harvested. All herbicides and herbicide mixtures were formulated in water containing 0.25% (vol/vol) non-ionic surfactant (“NIS” provided by INDUCE®) and applied to bermudagrass stubble as a spray mixture using a backpack sprayer pressurized with CO2.
# [3] = system: bermudagrass (Cynodon dactylon, CYNDA); assay: Test D field plots: bermudagrass phytotoxic response
# Source text: as §1, §2, §4
# [4] = system: rescuegrass (Bromus catharticus Vahl., BROCA); assay: Test E field plots: rescuegrass control
# Source text: as §1, §2
# (§5) Herbicides and herbicide mixtures were applied to field plots of dormant bermudagrass (Cynodon dactylon, CYNDA) near Eatonton, Ga. on Mar. 20, 2010 and Decatur, Tex. on Mar. 30, 2010 to control rescuegrass (Bromus catharticus Vahl., BROCA). All herbicides and herbicide mixtures were formulated in water containing 1.0% (vol/vol) crop oil concentrate and applied as a spray mixture to bermudagrass using a backpack sprayer pressurized with CO2.
# [5] = system: field sandbur (Cenchrus incertus M. A. Curtis, CCHIN); assay: Test C field plots: field sandbur control
# Source text: as §1, §2, §3
# [6] = system: dormant bermudagrass (Cynodon dactylon, CYNDA); assay: Test E field plots: dormant bermudagrass phytotoxic response
# Source text: as §1, §2, §5
# [7] = glyphosate 96 g a.i./ha, 15 DAA, De Leon, TX
# [8] = glyphosate 96 g a.i./ha, 30 DAA, Yukon, OK
# [9] = glyphosate 96 g a.i./ha, 90 DAA, Yukon, OK and Burlington, OK
# [10] = glyphosate 192 g a.i./ha, 15 DAA, De Leon, TX
# [11] = glyphosate 192 g a.i./ha, 30 DAA, Yukon, OK
# [12] = glyphosate 192 g a.i./ha, 90 DAA, Yukon, OK and Burlington, OK
# [13] = glyphosate 289 g a.i./ha, 15 DAA, De Leon, TX
# [14] = glyphosate 289 g a.i./ha, 30 DAA, Yukon, OK
# [15] = glyphosate 289 g a.i./ha, 90 DAA, Yukon, OK and Burlington, OK
# [16] = glyphosate 96 g a.i./ha, 30 DAA, Paris, AR
# [17] = glyphosate 96 g a.i./ha, 60 DAA, Paris, AR
# [18] = glyphosate 192 g a.i./ha, 15 DAA, Lena, MS
# [19] = glyphosate 192 g a.i./ha, 30 DAA, Paris, AR
# [20] = glyphosate 192 g a.i./ha, 60 DAA, Paris, AR
# [21] = glyphosate 289 g a.i./ha, 15 DAA, Lena, MS
# [22] = glyphosate 289 g a.i./ha, 30 DAA, Paris, AR
# [23] = glyphosate 289 g a.i./ha, 60 DAA, Paris, AR
# [24] = glyphosate 144 g a.i./ha, 30 DAA, Decatur, TX
# [25] = glyphosate 144 g a.i./ha, 45 DAA, Eatonton, GA
# [26] = glyphosate 144 g a.i./ha, 60 DAA, Decatur, TX
# [27] = glyphosate 289 g a.i./ha, 30 DAA, Decatur, TX
# [28] = glyphosate 289 g a.i./ha, 45 DAA, Eatonton, GA
# [29] = glyphosate 289 g a.i./ha, 60 DAA, Decatur, TX
# [30] = nicosulfuron 39 g a.i./ha, 15 DAA, De Leon, TX
# [31] = nicosulfuron 39 g a.i./ha, 30 DAA, Yukon, OK
# [32] = nicosulfuron 39 g a.i./ha, 90 DAA, Yukon, OK and Burlington, OK
# [33] = nicosulfuron 39 g a.i./ha, 30 DAA, Paris, AR
# [34] = nicosulfuron 39 g a.i./ha, 60 DAA, Paris, AR
# [35] = nicosulfuron 39 g a.i./ha, 30 DAA, Decatur, TX
# [36] = nicosulfuron 39 g a.i./ha, 45 DAA, Eatonton, GA
# [37] = nicosulfuron 39 g a.i./ha, 60 DAA, Decatur, TX
smiles,measurement,setting,value
"O=C(O)CNCP(=O)(O)O [Glyphosate, glyphosate]",CYNDA (% phyto) Observed,[1]; [7],0%
same,CYNDA (% phyto) Observed,[1]; [8],0%
same,CYNDA (% phyto) Observed,[1]; [9],0%
same,CYNDA (% phyto) Observed,[1]; [10],5%
same,CYNDA (% phyto) Observed,[1]; [11],0%
same,CYNDA (% phyto) Observed,[1]; [12],0%
same,CYNDA (% phyto) Observed,[1]; [13],13%
same,CYNDA (% phyto) Observed,[1]; [14],0%
same,CYNDA (% phyto) Observed,[1]; [15],0%
same,SETGE (% control) Observed,[2]; [16],7%
same,SETGE (% control) Observed,[2]; [17],3%
same,SETGE (% control) Observed,[2]; [18],79%
same,SETGE (% control) Observed,[2]; [19],28%
same,SETGE (% control) Observed,[2]; [20],18%
same,SETGE (% control) Observed,[2]; [21],84%
same,SETGE (% control) Observed,[2]; [22],40%
same,SETGE (% control) Observed,[2]; [23],20%
same,CYNDA (% phyto) Observed,[3]; [16],0%
same,CYNDA (% phyto) Observed,[3]; [17],0%
same,CYNDA (% phyto) Observed,[3]; [18],18%
same,CYNDA (% phyto) Observed,[3]; [19],2%
same,CYNDA (% phyto) Observed,[3]; [20],0%
same,CYNDA (% phyto) Observed,[3]; [21],20%
same,CYNDA (% phyto) Observed,[3]; [22],11%
same,CYNDA (% phyto) Observed,[3]; [23],0%
same,BROCA (% control) Observed,"[4]; glyphosate 144 g a.i./ha, 15 DAA, Eatonton, GA",0%
same,BROCA (% control) Observed,[4]; [24],0%
same,BROCA (% control) Observed,[4]; [25],88%
same,BROCA (% control) Observed,[4]; [26],0%
same,BROCA (% control) Observed,"[4]; glyphosate 289 g a.i./ha, 15 DAA, Eatonton, GA",87%
same,BROCA (% control) Observed,[4]; [27],0%
same,BROCA (% control) Observed,[4]; [28],95%
same,BROCA (% control) Observed,[4]; [29],0%
same,CCHIN (% control) Observed,[5]; [7],60%
same,CCHIN (% control) Observed,[5]; [8],2%
same,CCHIN (% control) Observed,[5]; [9],55%
same,CCHIN (% control) Observed,[5]; [10],74%
same,CCHIN (% control) Observed,[5]; [11],18%
same,CCHIN (% control) Observed,[5]; [12],63%
same,CCHIN (% control) Observed,[5]; [13],89%
same,CCHIN (% control) Observed,[5]; [14],35%
same,CCHIN (% control) Observed,[5]; [15],75%
same,CYNDA (% phyto) Observed,[6]; [24],0%
same,CYNDA (% phyto) Observed,[6]; [25],0%
same,CYNDA (% phyto) Observed,[6]; [26],0%
same,CYNDA (% phyto) Observed,[6]; [27],0%
same,CYNDA (% phyto) Observed,[6]; [28],0%
same,CYNDA (% phyto) Observed,[6]; [29],0%
"COc1cc(OC)nc(NC(=O)NS(=O)(=O)c2ncccc2C(=O)N(C)C)n1 [Nicosulfuron, nicosulfuron]",CYNDA (% phyto) Observed,[1]; [30],5%
same,CYNDA (% phyto) Observed,[1]; [31],10%
same,CYNDA (% phyto) Observed,[1]; [32],0%
same,SETGE (% control) Observed,[2]; [33],28%
same,SETGE (% control) Observed,[2]; [34],10%
same,CYNDA (% phyto) Observed,[3]; [33],3%
same,CYNDA (% phyto) Observed,[3]; [34],0%
same,BROCA (% control) Observed,"[4]; nicosulfuron 39 g a.i./ha, 15 DAA, Eatonton, GA",10%
same,BROCA (% control) Observed,[4]; [35],63%
same,BROCA (% control) Observed,[4]; [36],79%
same,BROCA (% control) Observed,[4]; [37],53%
same,CCHIN (% control) Observed,[5]; [30],65%
same,CCHIN (% control) Observed,[5]; [31],78%
same,CCHIN (% control) Observed,[5]; [32],88%
same,CYNDA (% phyto) Observed,[6]; [35],0%
same,CYNDA (% phyto) Observed,[6]; [36],0%
same,CYNDA (% phyto) Observed,[6]; [37],0%
